Assay results taken from patent US11124507B2, “1H-pyrrolopyridine compound, N-oxide thereof or salt thereof, agricultural and horticultural insecticide comprising the compound, and method for using the insecticide” (Nihon Nohyaku Co., Ltd., priority 2016, dated 2021).
Counter-ions that a name gives are not always drawn. Like-named read-outs stand apart in the source and are kept apart here.

Experiments:
Type in all cases: in vivo
Laodelphax striatellus = test: Insecticidal test on Laodelphax striatellus (rice seedling dip); conditions: 192 h, read-out: insecticidal efficacy (corrected mortality rate), activity level
From the text: Insecticidal Test on Laodelphax striatellus
The condensed heterocyclic compounds represented by the general formula (1) of the present invention or salts thereof were separately dispersed in water and diluted to 500 ppm. Rice plant seedlings (variety: Nihonbare) were dipped in the agrochemical dispersions for 30 seconds. After air-dried, each seedling was put into a separate glass test tube and inoculated with ten 3rd-instar larvae of Laodelphax striatellus, and then the glass test tubes were capped with cotton plugs. At 8 days after the inoculation, the numbers of surviving larvae and dead larvae were counted, the corrected mortality rate was calculated according to the formula shown below, and the insecticidal efficacy was evaluated according to the criteria shown below. Corrected mortality rate (%)=100×(Survival rate in a non-treatment plot−Survival rate in a treatment plot)/Survival rate in a non-treatment plot [Math. 2] Corrected Mortality Rate A: the corrected mortality rate is 100%.

Plutella xylostella = test: Insecticidal test on Plutella xylostella (dip of Chinese cabbage seedlings with laid eggs); conditions: 144 h
Protocol: Insecticidal Test on Plutella xylostella
Adults of Plutella xylostella were released onto Chinese cabbage seedlings and allowed to lay eggs thereon. […] After air-dried, the seedlings were kept in a thermostatic chamber at 25° C. […] This test was conducted in triplicate using 10 adults of Plutella xylostella per plot. Corrected mortality rate (%)=100×(Number of hatched larvae in a non-treatment plot−Number of hatched larvae in a treatment plot)/Number of hatched larvae in a non-treatment plot [Math. 3]

Myzus persicae = test: Test for control efficacy on Myzus persicae (foliar application, Chinese cabbage); conditions: 144 h, foliar application to potted Chinese cabbage plants, 6 days after application, read-out: control efficacy (control rate), activity level
From the text: Test for control efficacy on Myzus persicae Chinese cabbage plants were planted in plastic pots (diameter: 8 cm, height: 8 cm), Green peach aphids (Myzus persicae) were propagated on the plants, and the number of surviving Green peach aphids in each pot was counted. The condensed heterocyclic compounds represented by the general formula (1) of the present invention or salts thereof were separately dispersed in water and diluted to 500 ppm. The agrochemical dispersions were applied to the foliage of the potted Chinese cabbage plants. After the plants were air-dried, the pots were kept in a greenhouse. At 6 days after the foliar application, the number of surviving Green peach aphids on the Chinese cabbage plant in each pot was counted, the control rate was calculated according to the formula shown below, and the control efficacy was evaluated according to the criteria shown below. Control rate=100−{(T×Ca)/(Ta×C)}×100 [Math. 1] Ta: the number of survivors before the foliar application in a treatment plot T: the number of survivors after the foliar application in a treatment plot Ca: the number of survivors before the foliar application in a non-treatment plot C: the number of survivors after the foliar application in a non-treatment plot Criteria A: the control rate is 100%. B: the control rate is 90 to 99%. C: the control rate is 80 to 89%. D: the control rate is 50 to 79%.

[1] = 500 ppm, rice seedlings dipped 30 seconds, ten 3rd-instar larvae, 8 days after inoculation
[2] = 500 ppm, seedlings with laid eggs dipped about 30 seconds, 25° C., 6 days after dip treatment, criteria of Test Example 2, read-out: insecticidal efficacy (corrected mortality rate), activity level
[3] = read-out: insecticidal efficacy (corrected mortality rate), activity level

CCS(=O)(=O)c1cc2cc(Cl)ccc2nc1-c1c(F)c2ncc(C(F)(F)F)cc2n1C(C)=O [Compound 2-1, 1-acetyl-2-(6-chloro-3-ethylsulfonyl-quinolin-2-yl)-3-fluoro-6-trifluoromethyl-1H-pyrrolo[3,2-b]pyridine]
100%: mortality at 500 ppm (Laodelphax striatellus; [1]) | mortality at 500 ppm (Plutella xylostella; [2]) | pest or weed control at 500 ppm (Myzus persicae)

CCS(=O)(=O)c1cc2cc(Cl)ccc2nc1-c1[nH]c2cc(C(F)(F)F)cnc2c1F [Compound 1-3, 2-(6-chloro-3-ethylsulfonyl-quinolin-2-yl)-3-fluoro-6-trifluoromethyl-1H-pyrrolo[3,2-b]pyridine]
100%: mortality at 500 ppm (Laodelphax striatellus; [1]) | mortality at 500 ppm (Plutella xylostella; [2]) | pest or weed control at 500 ppm (Myzus persicae)

CCOC(=O)Nc1ccc2cc(S(=O)(=O)CC)c(-c3[nH]c4cc(C(F)(F)F)cnc4c3F)nc2c1 [Compound 1-13, 2-(7-ethoxycarbonylamino-3-ethylsulfonyl-quinolin-2-yl)-3-fluoro-6-trifluoromethyl-1H-pyrrolo[3,2-b]pyridine]
100%: mortality at 500 ppm (Laodelphax striatellus) | mortality at 500 ppm (Plutella xylostella; [3]) | pest or weed control at 500 ppm (Myzus persicae)

CCOC(=O)Nc1ccc2cc(S(=O)(=O)CC)c(-c3c(F)c4ncc(C(F)(F)F)cc4n3C(=O)OC(C)(C)C)nc2c1 [Compound 2-49, 1-(tert-butoxycarbonyl)-2-(7-ethoxycarbonylamino-3-ethylsulfonyl-quinolin-2-yl)-3-fluoro-6-trifluoromethyl-1H-pyrrolo[3,2-b]pyridine]
100%: mortality at 500 ppm (Laodelphax striatellus) | mortality at 500 ppm (Plutella xylostella; [3]) | pest or weed control at 500 ppm (Myzus persicae)

CCS(=O)(=O)c1cc2ccc(Br)cc2nc1-c1c(Cl)c2ncc(C(F)(F)F)cc2n1C(=O)OC(C)(C)C [Compound 2-61, 1-(tert-butoxycarbonyl)-2-(7-bromo-3-ethylsulfonyl-quinolin-2-yl)-3-chloro-6-trifluoromethyl-1H-pyrrolo[3,2-b]pyridine]
100%: mortality at 500 ppm (Laodelphax striatellus; [1]) | mortality at 500 ppm (Plutella xylostella; [2]) | pest or weed control at 500 ppm (Myzus persicae)

CCS(=O)(=O)c1cc2ccc(Br)cc2nc1-c1c(Cl)c2ncc(C(F)(F)F)cc2n1COC [Compound 2-65, 1-methoxymethyl-2-(7-bromo-3-ethylsulfonyl-quinolin-2-yl)-3-chloro-6-trifluoromethyl-1H-pyrrolo[3,2-b]pyridine]
100%: mortality at 500 ppm (Laodelphax striatellus; [1]) | mortality at 500 ppm (Plutella xylostella; [2]) | pest or weed control at 500 ppm (Myzus persicae)

CCSc1cc2cc(Cl)ccc2nc1-c1cc2ncc(C(F)(F)F)cc2n1C(=O)OC(C)(C)C [Compound 2-41, 1-(tert-butoxycarbonyl)-2-(6-chloro-3-ethylthio-quinolin-2-yl)-6-trifluoromethyl-1H-pyrrolo[3,2-b]pyridine]
100%: mortality at 500 ppm (Laodelphax striatellus; [1]) | mortality at 500 ppm (Plutella xylostella; [2]) | pest or weed control at 500 ppm (Myzus persicae)

CCS(=O)(=O)c1cc2cc(Cl)ccc2nc1-c1cc2ncc(C(F)(F)F)cc2n1C(=O)OC(C)(C)C [Compound 2-42, 1-(tert-butoxycarbonyl)-2-(6-chloro-3-ethylsulfonyl-quinolin-2-yl)-6-trifluoromethyl-1H-pyrrolo[3,2-b]pyridine]
100%: mortality at 500 ppm (Laodelphax striatellus; [1]) | mortality at 500 ppm (Plutella xylostella; [2]) | pest or weed control at 500 ppm (Myzus persicae)

CCS(=O)(=O)c1cc2cc(Cl)ccc2nc1-c1cc2ncc(C(F)(F)F)cc2[nH]1 [Compound 4-3, 2-(6-chloro-3-ethylsulfonyl-quinolin-2-yl)-6-trifluoromethyl-1H-pyrrolo[3,2-b]pyridine trifluoroacetate]
100%: mortality at 500 ppm (Laodelphax striatellus; [1]) | mortality at 500 ppm (Plutella xylostella; [2]) | pest or weed control at 500 ppm (Myzus persicae)

C=Cc1ccc2cc(S(=O)(=O)CC)c(-c3c(Cl)c4ncc(C(F)(F)F)cc4n3C(=O)OC(C)(C)C)nc2c1 [Compound 2-98, 1-(tert-butoxycarbonyl)-2-(7-vinyl-3-ethylsulfonyl-quinolin-2-yl)-3-chloro-6-trifluoromethyl-1H-pyrrolo[3,2-b]pyridine]
100%: mortality at 500 ppm (Laodelphax striatellus; [1]) | mortality at 500 ppm (Plutella xylostella; [2]) | pest or weed control at 500 ppm (Myzus persicae)

CCS(=O)(=O)c1cc2ccc(C=O)cc2nc1-c1c(Cl)c2ncc(C(F)(F)F)cc2n1C(=O)OC(C)(C)C [Compound 2-97, 1-(tert-butoxycarbonyl)-2-(7-formyl-3-ethylsulfonyl-quinolin-2-yl)-3-chloro-6-trifluoromethyl-1H-pyrrolo[3,2-b]pyridine]
100%: mortality at 500 ppm (Laodelphax striatellus; [1]) | mortality at 500 ppm (Plutella xylostella; [2]) | pest or weed control at 500 ppm (Myzus persicae)

CCS(=O)(=O)c1cc2cc(Cl)ccc2nc1-c1[nH]c2cc(C(F)(F)F)cnc2c1Cl [Compound 1-44, 3-chloro-2-(6-chloro-3-ethylsulfonyl-quinolin-2-yl)-6-trifluoromethyl-1H-pyrrolo[3,2-b]pyridine]
100%: mortality at 500 ppm (Laodelphax striatellus; [1]) | mortality at 500 ppm (Plutella xylostella; [2]) | pest or weed control at 500 ppm (Myzus persicae)
